ChEMBL document CHEMBL1131047, “Novel nonnucleoside inhibitors of HIV-1 reverse transcriptase. 7. 8-Arylethyldipyridodiazepinones as potent broad-spectrum inhibitors of wild-type and mutant enzymes” (J Med Chem, 1998)

Assays:
[1] = biological target: Human immunodeficiency virus type 1 reverse transcriptase (Human immunodeficiency virus 1, UniProt Q72547, P236L); assay: Inhibitory activity against HIV-1 Mutant Reverse transcriptase P236L
[2] = biological target: Human immunodeficiency virus type 1 reverse transcriptase (Human immunodeficiency virus 1, UniProt Q72547, K103N); assay: Inhibitory activity against HIV-1 Mutant Reverse transcriptase K103N
[3] = biological target: Human immunodeficiency virus type 1 reverse transcriptase (Human immunodeficiency virus 1, UniProt Q72547, Y181C); assay: Inhibitory activity against HIV-1 Y181C reverse transcriptase.
[4] = biological target: Human immunodeficiency virus type 1 reverse transcriptase (Human immunodeficiency virus 1, UniProt Q72547, Y188L); assay: Inhibitory activity against HIV-1 Y188L reverse transcriptase.
[5] = biological target: Human immunodeficiency virus type 1 reverse transcriptase (Human immunodeficiency virus 1, UniProt Q72547, G190A); assay: Inhibitory activity against HIV-1 Mutant Reverse transcriptase G190A
[6] = biological target: Human immunodeficiency virus type 1 reverse transcriptase (Human immunodeficiency virus 1, UniProt Q72547); assay: Inhibitory activity against HIV-1 wild-type reverse transcriptase.
[7] = biological target: Human immunodeficiency virus type 1 reverse transcriptase (Human immunodeficiency virus 1, UniProt Q72547, V106A); assay: Inhibitory activity against HIV-1 Mutant Reverse transcriptase V106A
C8166 = assay: Inhibitory activity against HIV-1 IIIB replication in C8166 cells.; assay type: functional, cell-based; details: Homo sapiens

Compound	IC50 [3]	IC50 [4]	IC50 [6]	also measured
CCN1c2ncc(CCc3cccc(N)c3)cc2C(=O)N(C)c2ccc(Cl)nc21	230 nM	250 nM	120 nM	IC50 [1]: 40 nM; IC50 [2]: 10 nM; IC50 [5]: 10 nM; IC50 [7]: 90 nM
CCN1c2ncc(CCc3ccnc(C)c3)cc2C(=O)N(C)c2ccc(Cl)nc21	140 nM	> 1000 nM	60 nM	–
CCN1c2ncc(CO)cc2C(=O)N(C)c2cccnc21	740 nM	–	50 nM	–
CCN1c2ncc(-c3cccc(OC)c3)cc2C(=O)N(C)c2cccnc21	> 1000 nM	–	> 1000 nM	–
CCN1c2ncc(/C=C\c3ccccc3)cc2C(=O)N(C)c2cccnc21	580 nM	–	250 nM	–
CCN1c2ncc(CCc3ccncc3)cc2C(=O)N(C)c2ccc(F)nc21	80 nM	250 nM	50 nM	IC50 [1]: 50 nM; IC50 [2]: 20 nM; IC50 [5]: 60 nM; IC50 [7]: 250 nM
CCN1c2ncc(CCCO)cc2C(=O)N(C)c2cccnc21	2900 nM	–	300 nM	–
CCN1c2ncc(CCc3cccc(NC(N)=O)c3)cc2C(=O)N(C)c2ccc(Cl)nc21	80 nM	230 nM	60 nM	IC50 (C8166): 39 nM
CCN1c2ncc(C)cc2C(=O)N(C)c2cccnc21	> 1000 nM	–	750 nM	–
CCN1c2ncc(CCc3cncnc3)cc2C(=O)N(C)c2cccnc21	> 1000 nM	> 1000 nM	540 nM	–
CCN1c2ncc(CCc3ccccc3)cc2C(=O)N(C)c2cccnc21	130 nM	–	50 nM	–
CCN1c2ncc(CCC(=O)OC)cc2C(=O)N(C)c2cccnc21	140 nM	–	90 nM	–
CCN1c2ncc(CCc3ccc(C)cc3)cc2C(=O)N(C)c2ccc(Cl)nc21	1180 nM	> 1000 nM	230 nM	–
CCN1c2ncc(CCc3ccc(NS(C)(=O)=O)cc3)cc2C(=O)N(C)c2ccc(Cl)nc21	560 nM	> 1000 nM	330 nM	–
CCN1c2ncc(CCc3ccc4ccccc4c3)cc2C(=O)N(C)c2ccc(F)nc21	30 nM	> 1000 nM	20 nM	–
CCN1c2ncc(CCc3ccnc(C(=O)OC)c3)cc2C(=O)N(C)c2ccc(Cl)nc21	480 nM	6000 nM	150 nM	–
CCN1c2ncc(CCc3cccnc3)cc2C(=O)N(C)c2cccnc21	320 nM	> 1000 nM	130 nM	–
CCN1c2ncc(CCc3cccc(N)c3)cc2C(=O)N(C)c2cccnc21	70 nM	> 1000 nM	40 nM	–
CCN1c2ncc(CCc3ccncc3)cc2C(=O)N(C)c2ccc(C#N)nc21	290 nM	> 1000 nM	460 nM	–
CCN1c2ncc(CCc3ccccn3)cc2C(=O)N(C)c2cccnc21	> 1000 nM	> 1000 nM	190 nM	–
CCN1c2ncc(CCc3cccc(C)c3)cc2C(=O)N(C)c2ccc(Cl)nc21	460 nM	> 1000 nM	110 nM	–
CCN1c2ncc(CCc3ccccc3)cc2C(=O)N(C)c2ccc(Cl)nc21	–	–	–	IC50 (C8166): 12 nM
CCN1c2ncc(CCc3cccc(F)c3)cc2C(=O)N(C)c2cccnc21	370 nM	> 1000 nM	120 nM	–
CCN1c2ncc(CCc3ccccc3N)cc2C(=O)N(C)c2cccnc21	1700 nM	> 1000 nM	80 nM	–
CCN1c2ncc(CCc3ccccc3)cc2C(=O)N(C)c2ccc(C3=CCC=N3)nc21	520 nM	1280 nM	590 nM	–
CCN1c2ncc(CCc3ccnc(C)c3)cc2C(=O)N(C)c2cccnc21	90 nM	> 1000 nM	30 nM	–
CCN1c2ncc(CCC(N)=O)cc2C(=O)N(C)c2cccnc21	6100 nM	–	620 nM	–
CCN1c2ncc(N)cc2C(=O)N(C)c2cccnc21	–	–	100 nM	–

Compound	IC50 [3]	IC50 [4]	IC50 [6]	also measured
CCN1c2ncc(CCc3ccnc(C(=O)O)c3)cc2C(=O)N(C)c2ccc(Cl)nc21	3800 nM	> 1000 nM	1500 nM	–
CCN1c2ncc(CCc3ccc4ccccc4c3)cc2C(=O)N(C)c2ccc(Cl)nc21	2880 nM	> 1000 nM	1020 nM	–
CCN1c2ncc(CCc3ccc(C)cc3)cc2C(=O)N(C)c2cccnc21	250 nM	> 1000 nM	100 nM	–
CCN1c2ncc(CCC#N)cc2C(=O)N(C)c2cccnc21	2160 nM	–	210 nM	–
CCN1c2ncc(Cc3ccccc3)cc2C(=O)N(C)c2cccnc21	1200 nM	–	120 nM	–
CCN1c2ncc(CCc3cccc(N=[N+]=[N-])c3)cc2C(=O)N(C)c2ccc(Cl)nc21	160 nM	> 1000 nM	80 nM	–
CCN1c2ncc(CCc3ccncc3)cc2C(=O)N(C)c2ccc(I)nc21	180 nM	430 nM	90 nM	–
CCN1c2ncc(CCc3cccc(C)c3)cc2C(=O)N(C)c2cccnc21	280 nM	> 1000 nM	110 nM	–
CCN1c2ncc(CCc3ccncc3)cc2C(=O)N(C)c2cccnc21	110 nM	> 1000 nM	30 nM	IC50 (C8166): 25 nM
CCN1c2ncc(CCc3ccccc3C)cc2C(=O)N(C)c2cccnc21	1600 nM	> 1000 nM	200 nM	–
CCN1c2ncc(CCc3ccncc3)cc2C(=O)N(C)c2ccc(Cl)nc21	–	–	–	IC50 (C8166): 9 nM
CCN1c2ncc(CCO)cc2C(=O)N(C)c2cccnc21	2500 nM	–	430 nM	–
CCN1c2ncc(CCc3ccc(N)cc3)cc2C(=O)N(C)c2cccnc21	200 nM	> 1000 nM	60 nM	–
CCN1c2ncc(CCc3ccnc(CO)c3)cc2C(=O)N(C)c2ccc(Cl)nc21	280 nM	> 1000 nM	160 nM	–
CCN1c2ncc(CCc3cccc(NS(C)(=O)=O)c3)cc2C(=O)N(C)c2ccc(Cl)nc21	140 nM	> 1000 nM	140 nM	–
CCN1c2ncc(/C=C/C(=O)OC)cc2C(=O)N(C)c2cccnc21	–	–	> 1000 nM	–
CCN1c2ncc(CCc3nccs3)cc2C(=O)N(C)c2cccnc21	440 nM	> 1000 nM	40 nM	–
CCN1c2ncc(CCc3ccccc3C)cc2C(=O)N(C)c2ccc(Cl)nc21	> 1000 nM	> 1000 nM	> 1000 nM	–
CCN1c2ncc(C(=O)O)cc2C(=O)N(C)c2cccnc21	–	–	> 1000 nM	–
CCN1c2ncc(CCc3ccnc(C(N)=O)c3)cc2C(=O)N(C)c2ccc(Cl)nc21	250 nM	4000 nM	50 nM	–
CCN1c2ncc(CCCc3ccccc3)cc2C(=O)N(C)c2cccnc21	1170 nM	–	120 nM	–
CCN1c2ncc(CCc3ccc(N)cc3)cc2C(=O)N(C)c2ccc(Cl)nc21	360 nM	> 1000 nM	160 nM	–
CCN1c2ncccc2C(=O)N(C)c2cccnc21	–	–	90 nM	–
CCN1c2ncc(NC(N)=O)cc2C(=O)N(C)c2cccnc21	–	–	1100 nM	–
CCN1c2ncc(CCc3ccc4ccccc4c3)cc2C(=O)N(C)c2cccnc21	150 nM	> 1000 nM	80 nM	–
CCN1c2ncc(Cl)cc2C(=O)N(C)c2cccnc21	> 1000 nM	–	540 nM	–
CCN1c2ncc(/C=C/c3ccncc3)cc2C(=O)N(C)c2cccnc21	> 1000 nM	–	3000 nM	–
